Measured values taken from US11446516B2, “Methods of increasing response to cancer radiation therapy” (THE TRUSTEES OF THE UNIVERSITY OF PENNSYLVANIA, priority 2013, dated 2022).
“Also recorded” adds a separate entry of the source. Read-outs that look alike come from different tables or passages of the source. Where a SMILES comes first, the peptide text is derived from it. The star is where a group is joined. Cbz = O=C(OCc1ccccc1)*

Legend:
BT-474 cells = assay: MTT cell viability assay, BT-474; format: cell-based; conditions: FIG. 43, FIG. 48
[1] = test system: Akt, MAPK, GSK3-β, snail, slug, KLF4 in SK-BR-3 cells; assay: Western blot of erbB downstream signaling and Snail/Slug, SK-BR-3; format: cell-based, human
H2N113 tumors = format: in vivo
[2] = test system: Akt, MAPK, snail in MDA-MB-453 cells; assay: Western blot of signaling and snail, MDA-MB-453; format: cell-based; conditions: 24 hours (FIG. 20B)
SK-BR-3 cells = assay: Soft agar growth (foci formation) assay, SK-BR-3; format: cell-based, human; conditions: 14 days in soft agar, ImageJ
MCF10A cells = assay: MTT cell viability assay, MCF10A; format: cell-based; conditions: 8 days
MDA-MB-231 cells = assay: MTT cell viability assay, MDA-MB-231; format: cell-based; conditions: FIG. 43 / FIG. 55C
H2N113 (IFNγR KD) tumors = assay: Implanted H2N113 (IFNγR KD) tumor growth in MMTV-neu mice; format: in vivo, mouse; conditions: suboptimal 7.16.4 1.5 mg/kg; IFN-γ 5×10^5 IU/kg (FIG. 33)
[3] = test system: class I and class II MHC antigens in SKBR3 cells; assay: MHC expression in SKBR3 cells by FACS; format: cell-based, human; conditions: FIG. 4
MDSC = assay: In vitro MDSC migration assay (Transwell, H2N113 conditioned medium); format: cell-based, mouse; conditions: H2N113 treated 3 days (FIG. 9)
H2N113 cells = assay: Cytotoxicity assay of spleen CD8+ T cells from treated mice; format: in vivo, mouse; conditions: suboptimal mAb and IFN-γ (FIG. 52)
PD-L1 = PD-L1 expression in treated tumors; format: in vivo, mouse; conditions: FIG. 60A
Protocol: FIG. 60A-FIG. 60C. PD-L1 expression is increased in tumors treated with IFN-γ. FIG. 60A—Western blotting was performed with anti-PD-L1 antibody with the tumors from each indicated group of mice after treatment in the same way as FIG. 59A. FIG. 60B—FACS analysis of PD-L1 expression in tumor cells from control IgG and 7.16.4+IFN-γ treated mice. Tumor cells are gated as CD45-large size cells which we confirmed most of them are tumor cells by 7.16.4 antibody. **P<0.02. FIG. 60C—Administration of anti-PD-L1 antibody with the ordered therapy. Mice were treated with control PBS, 7.16.4 (1.5 mg/kg, three times per week) and anti-PDL1 (5 mg/kg, twice per week), 7.16.4 and IFN-γ ([…], three times per week), or the combination of IFN-γ, 7.16.4 and anti-PD-L1. Data represent mean+SEM.
This is also consistent with why IFN-γ alone is not useful for cancer therapy (Zaidi and Merlino, 2011). […] It is possible that PD-L1 acts as a negative immune regulator induced by IFN-γ treatment alone. […] To determine if PD-L1 can be further targeted for this ordered therapy, we used anti-PD-L1 antibody along with 7.16.4 and IFN-γ.

H2N113 (IFNγR KD) cells = assay: IFN-γ response of H2N113 (IFNγR KD) cells in vitro; format: cell-based, mouse
[4] = inhibitor added during final 8 hours of two-day 4D5 and IFN-γ treatment

With `CC/C(=C(\c1ccc(O)cc1)c1ccc(OCCN(C)C)cc1)c1ccccc1` [4-OH tamoxifen] as the molecule, how does the cell viability (BT-474 cells) read?
Its cell viability is “reduced viability in the cIgG-treated cells; also recorded: complemented 4D5 treatment; also recorded: did not further sensitize the cells to IFN-γ in combination with 4D5”.

How did the “slug content under 4D5 and IFN-γ co-treatment” value [1, 4] turn out when `Cc1c[nH]c(-c2cnc(NCCNc3ccc(C#N)cn3)nc2-c2ccc(Cl)cc2Cl)n1` [CHIR99021] was run?
Its value is “no change in slug content”.

What about the “snail content under 4D5 and IFN-γ co-treatment” value (“snail content” for short) [1, 4] of the same molecule?
Its value is “dose-dependent rescue of snail”.

Which “snail content” value [1] does the source give for `CCN(CC)CCCC(C)Nc1ccnc2cc(Cl)ccc12` (stereo not shown) [chloroquine] here?
The value was “increased snail content but was unable to rescue”.

IFNα was tested. Which “anti-tumor activity of IFNα on its own” value (H2N113 tumors; FIG. 7) did it give?
The value was “appears to have anti-tumor activity on its own”.

And the “enhancement of mAb 7.16.4 activity to suppress tumor growth” value (H2N113 tumors; IFNα in combination with mAb 7.16.4 (FIG. 7))?
Its value is “could not enhance mAb 7.16.4 activity”.

How did the Akt pathway activity ([1]; 24 hours (FIG. 20A, 20B)) turn out when `CS(=O)(=O)CCNCc1ccc(-c2ccc3ncnc(Nc4ccc(OCc5cccc(F)c5)c(Cl)c4)c3c2)o1` [lapatinib, Lapatinib] was run?
The Akt pathway activity was “inactivated; also recorded: diminished Akt activity in both cell lines”.

And the slug protein level ([1]; Western blot)?
The slug protein level was “not slug”.

And the snail protein level ([1]; Western blot)?
Its snail protein level is “dose-dependent reduction in snail”.

What about the Akt activity [2] of the same molecule?
Its Akt activity is “diminished Akt activity in both cell lines”.

What about the snail protein level [2] of the same molecule?
Its snail protein level is “snail is reduced upon lapatinib treatment”.

Which snail protein level ([1]; Western blot) does the source give for `O.O=C(O)C(F)(F)F.O=c1[nH]c2ccccc2n1C1CCN(Cc2ccc(-c3nc4cc5[nH]cnc5cc4nc3-c3ccccc3)cc2)CC1` [Akt1/2 inhibitor] here?
Its snail protein level is “dose-dependent decrease in snail content”.

With `CC(C)C[C@@H](C=O)NC(=O)[C@H](CC(C)C)NC(=O)[C@H](CC(C)C)NC(=O)OCc1ccccc1` [MG-132] (Cbz-Leu-Leu-Leu-aldehyde) as the molecule, how does the “slug content under 4D5 and IFN-γ co-treatment” value [1, 4] read?
The value was “no change in slug content”.

And the “snail content” value [1, 4]?
Its value is “inhibited the co-treatment-mediated reduction of snail in a dose-dependent manner”.

B1: IFN-γ: recombinant interferon-gamma (SEQ ID NO: 5) (protein)
chain: QDPYVKEAENLKKYFNAGHSDVADNGTLFLGILKNWKEESDRKIMQSQIVSFYFKLFKNFKDDQSIQKSVETIKEDMNVKFFNSNKKKRDDFEKLTNYSVTDLNVQRKAIHELIQVMAELSPAAKTGKRKRSQ
modifications: IFN-gamma
With B1 as the molecule, how does the “percentage of foci greater than 20 pixels” value (SK-BR-3 cells) read?
The value was 52±8%.

And the “percentage of foci less than 20 pixels” value (SK-BR-3 cells)?
The value was 48±8%.

What about the cell viability (MCF10A cells) of the same molecule?
The cell viability was “minimal changes to their viability”.

And the cell viability (MDA-MB-231 cells)?
The cell viability was “did respond to IFN-γ alone”.

What about the GSK3-β activation ([1]; Western blot (FIG. 21A)) of the same molecule?
Its GSK3-β activation is “unable to do so”.

What about the tumor volumes (H2N113 tumors; BALB/c mice, 7.16.4 1.5 mg/kg, IFN-γ 5×10^5 IU/kg (FIG. 26)) of the same molecule?
The tumor volumes was “demonstrable effect”.

And the tumor growth (H2N113 tumors; MMTV-neu mice, 7.16.4 1.5 mg/kg twice per week, IFN-γ 5×10^5 IU/kg three times per week (FIG. 1), 1.5 mg/kg)?
Its tumor growth is “aggressive tumor growth; also recorded: failed to significantly inhibit tumor growth”.

What about the tumor growth (H2N113 (IFNγR KD) tumors) of the same molecule?
The tumor growth was “no effect on its own”.

And the “class II MHC antigen expression” value [3]?
Its value is “no effect”.

What about the “MDSC migration induced by H2N113 conditioned medium” value (MDSC) of the same molecule?
Its value is “no appreciable effects”.

What about the “effector CD8+ T cell activity against H2N113 cells” value (H2N113 cells) of the same molecule?
Its value is “negligible effects”.

What about the “PD-L1 expression in tumor tissues” value (PD-L1) of the same molecule?
The value was “dramatically induced PD-L1 expression”.

And the “IFN-γ mediated growth suppression” value (H2N113 (IFNγR KD) cells; 5 days, LDH activity (FIG. 32C))?
Its value is “resistant to IFN-γ mediated growth suppression”.

And the “IFN-γ induced MHC expression” value (H2N113 (IFNγR KD) cells; FIG. 32B)?
The value was “diminished”.
